Measurements taken from paper PMC4389225, “Triaminopyrimidine is a fast-killing and long-acting antimalarial clinical candidate” (Nature Communications, 2015).
Converted amounts (≈) assume the structure as drawn.

How the values were obtained:
[1] = Blood-plasma ratio, mouse; assay type: in vitro ADME
Blood-plasma ratio, rat = assay type: in vitro ADME
From the text: Supplementary Note 5: Prediction of human clearance for compound 12 by IVIVE.
Human clearance (CL) was predicted by in vitro-in vivo extrapolation (IVIVE) from the in vitro Clint in human hepatocytes6. In vitro Clint was scaled to in vivo Clint as follows:
Clint in vivo = Clint in vitro * scaling factors * fublood/fuinc
The liver weights used for scaling were 40, 32 and 24 g/kg body weight in rat, dog and human respectively. Hepatocellularity used for scaling was 163, 169 and 120 (X 106) cells/g liver in rat, dog and human respectively. Free fraction in blood was calculated as fuplasma /Blood:Plasma (BP) ratio. BP ratio and free fraction in the hepatocyte incubation mix, fuinc, were measured in vitro. Slope and intercept from the linear regression analysis of IVIVC for a large number of AstraZeneca compounds was applied for final correction in the scaled in vivo Clint. A well stirred model was used for CL prediction.
Where Qh is the liver blood flow. The values of Qh in rat, dog and human are 72, 55 and 20 mL.min-1kg-1 in rat, dog and human, respectively. In vitro parameters, observed in vivo CL and predicted CL are shown in supplementary Table 10. […]
(also on this page, place not known: in vivo in vivo CLintQ CLintQCL Predicted predicted predicted h h + ×=)
(1 picture or pasted object on this page, not shown here)

[2] = Plasma protein binding, guinea pig
PfATP4 Cpd 2 = experiment: [3H]-hypoxanthine incorporation assay, PfATP4 Cpd 2 resistant; assay type: cell-based; settings: Plasmodium falciparum
Procedure: (§1) Supplementary Table 3: Compound 9 and 12 retain their activity against Pf strains harbouring mutations to novel antimalarial agents in clinical development. Compound 9 and 12 were tested for their antiplasmodial activity against a panel of Pf strains known to harbour mutations conferring resistance to novel agents under clinical development. Parasite growth inhibition is measured using the [3H]-hypoxanthine incorporation assay. IC50s are established for each strain (n ≥2) and compared to the IC50 of Dd2 (standard pan-resistant […]

[3] = Plasma protein binding, rat
PfATP4 Cpd 3 = experiment: [3H]-hypoxanthine incorporation assay, PfATP4 Cpd 3 resistant; assay type: cell-based; settings: Plasmodium falciparum
Procedure: as §1

[4] = test system: Pf male and female gametes; experiment: Pf male and female dual gamete assay; settings: Plasmodium falciparum, read-out: inhibition in Pf male and female dual gamete assay
Dd2-6R F4 D4 = experiment: SYBR green growth assay, Dd2-6R F4 D4; settings: Plasmodium falciparum
Procedure: (§2) Assays were carried out in 384-well format with three technical replicates within an assay day and biological replicates carried out on three different assay days to assign a final EC50.
(§3) The drug was then washed off and the parasites were allowed to recover in normal growth media.

Dd2 PfATP4 NITD609 = experiment: [3H]-hypoxanthine incorporation assay, Dd2 PfATP4 NITD609 resistant; assay type: cell-based; settings: Plasmodium falciparum
Procedure: as §1

Pf = experiment: Predicted human efficacy (parasite load reduction); design: species or system Plasmodium falciparum
Procedure: The predicted human exposure after a single dose of 260 mg is likely to sustain the maximum kill rate observed in the Pf/SCID model for 4–6 days to achieve >3-log reduction in parasitemia (Supplementary Note 6, Supplementary Figs 12 and 13, and Supplementary Table 12). A patient with clinical symptoms of uncomplicated malaria may have 1–2% parasitemia in blood, which is equivalent to 11–12 log parasites in total, assuming 13 log erythrocytes in human blood. At a dose of 260 mg, compound 12 is predicted to maintain a constant kill rate over two life cycles (96 h) of the parasite to yield a 3 to 4-log reduction in the total parasite load. Therefore, a single-dose treatment with~500 mg might result in >8-log reduction in the parasite load. In a combination-based malaria therapy that is clinically practiced, an additive or synergistic effect of the partner drug with compound 12 is predicted to cure patients following a single-dose treatment.
Prediction of human PK profile. The predicted human CL and Vss estimates could be used for predicting human PK with a one compartment distribution. However, rat and dog IVPK profiles indicated a two compartment distribution. Parameters for the two compartment distribution in human were predicted by Wajima transformation8 of rat and dog IVPK […]
CLd, Vt and Vc estimates, assuming similar Ka (0.3/h) and F (0.7) as observed in rats (supplementary Fig. 12 ).
Predicted human PK parameters are shown in supplementary Table 12. Human CL estimates predicted by the FCIM method and IVIVE (3.8 ml/min/kg) were identical. The […]
Human efficacy was predicted after treatment of 70 kg adult with a single 260 mg dose, assuming 2% parasitemia at the onset of treatment and assuming one compartment distribution of 12 in humans (supplementary Fig. 13). Similar efficacy was predicted if 12 was distributed in two compartments.

Dd2-6R F2 C5 = experiment: SYBR green growth assay, Dd2-6R F2 C5; settings: Plasmodium falciparum
Procedure: as §2, §3

[5] = Plasma protein binding, mouse
Dd2-6R F4 G7 = experiment: SYBR green growth assay, Dd2-6R F4 G7; settings: Plasmodium falciparum
Procedure: as §2, §3

Row | Structure (SMILES) | solubility (Solubility) [µM] | B:P ratio [1] | Observed blood CL (Observed blood CL, mouse; Mouse) | clearance (Observed blood CL, mouse; mouse, blood) [L/h/kg] | B:P ratio (Blood-plasma ratio, rat) | Plasma protein binding (% free) ([2]; Guinea pig) | fraction unbound ([2]; guinea pig, plasma) | IC50 (PfATP4 Cpd 2) [µM] | fraction unbound [3] | IC50 (PfATP4 Cpd 3) [µM] | inhibition at 1 µM [4] [%] | IC50 (Dd2-6R F4 D4) [µM] | IC50 (Dd2 PfATP4 NITD609) [µM] | predicted reduction in the total parasite load (Pf; 260 mg, two life cycles (96 h)) [log] | predicted reduction in parasitemia (Pf; single dose of 260 mg, 4–6 days) [log] | predicted reduction in the parasite load (Pf; single dose ~500 mg) [log] | IC50 (Dd2-6R F2 C5) [µM] | fraction unbound ([5]; Plasma protein binding (% free)) | fraction unbound ([5]; Plasma protein binding, Plasma fu, fraction unbound) | IC50 (Dd2-6R F4 G7) [µM]
1 | Cc1cc(Nc2ncc(N3CCN(C)CC3)c(N3CCCC3)n2)ccn1 [compound 2] | 830 (≈ 293 µg/mL) |  |  |  |  |  |  |  |  |  |  |  |  |  |  |  |  |  |  | 
2 | Cc1nc(Nc2ncc(N3CCN(C)[C@H](C)C3)c(Nc3cc(C)n(C)n3)n2)cc(C2CC2)c1F [compound 12, (R)-N2-(4-cyclopropyl-5-fluoro-6-methylpyridin-2-yl)-N4-(1,5-dimethyl-1H-pyrazol-3-yl)-5-(3,4-dimethylpiperazin-1-yl)pyrimidine-2,4-diamine] |  | 1.2 | 32-35 % LBF | 2.88 to 3.18 | 1.65 | 5.5 | 0.055 | 0.0081 | 0.04 | 0.01 | 16.5 ± 6.3 | 0.0816 | 0.0068 | 3 to 4 | > 3 | > 8 | 0.0701 | 0.0055 | 0.005 | 0.0907
